Converted amounts (≈) assume the structure as drawn.
How the values were obtained:
[1] = Metabolic stability in rat liver microsomes at 2 uM after 30 mins by LC-MS method; type: ADME, microsome; settings: 0.5 h
[2] = system: Mycobacterium tuberculosis; assay: Antitubercular activity against Mycobacterium tuberculosis H37Rv expressing DsRed using 7H9-Ty-10BT medium after 6 days by 2-fold serial dilution method; type: functional; settings: 144 h
[3] = Aqueous solubility of the compound at pH 7.4; type: physicochemical; settings: buffer
[4] = Aqueous solubility of the compound at pH 6; type: physicochemical; settings: buffer

SMILES | Stability [1] | further results
c1ccc(-c2nnc(CN3CCCc4ccccc43)o2)cc1 | Stable | 
c1csc(-c2nnc(COc3ccc4c(c3)OCO4)o2)c1 | Stable | 
c1csc(-c2nnc(Cc3cccc4ccccc34)o2)c1 | Stable | MIC [2]: 0.4 µM (≈ 0.117 µg/mL)
Fc1cccc(Cl)c1CNCc1nnc(-c2ccco2)o1 | Stable | 
c1csc(-c2nnc(CN3CCc4ccccc43)o2)c1 | Stable | 
CN(CCc1c(F)cccc1Cl)c1nnc(-c2ccco2)o1 | Stable | 
c1ccc(-c2nnc(CN3Cc4ccccc4C3)o2)cc1 | Stable | 
c1coc(-c2nnc(Cc3cccc4ccccc34)o2)c1 | Stable | 
CN(Cc1nnc(-c2ccco2)s1)Cc1c(F)cccc1Cl | Stable | 
CN(Cc1nnc(-c2ccco2)o1)Cc1c(F)cccc1Cl.O=C(O)/C=C\C(=O)O |  | solubility thermodynamic [3]: 717 µg/mL; solubility [4]: 687 µg/mL
c1ccc(C2CCCN2Cc2nnc(-c3cccs3)o2)cc1 (stereo unspecified) | Stable | 
c1coc(-c2nnc(SCc3cccc4ccccc34)o2)c1 | Stable | 
CN(Cc1nnc(-c2ccco2)o1)C(=O)c1c(F)cccc1Cl | Stable | 
c1csc(-c2nnc(CN3Cc4ccccc4C3)o2)c1 | Stable | 
c1ccc(-c2nnc(CN3CCOc4ccccc43)o2)cc1 | Stable | 
c1csc(-c2nnc(Cc3ccc4ccccc4c3)o2)c1 | Stable | 
CN(Cc1ccc(C(F)(F)F)cc1)Cc1nnc(-c2ccccc2)o1 | Stable | 
Fc1ccc(-c2nnc(CN3CCCc4ccccc43)o2)cc1 | Stable | 
FC(F)(F)c1ccc(-c2nnc(CN3CCc4ccccc4C3)o2)cc1 | Stable | 
Fc1cccc(Cl)c1COCc1nnc(-c2ccco2)o1 | Stable | 
CN(Cc1ccccc1)Cc1nnc(-c2cccs2)o1 | Stable | 

SMILES | Stability [1] | further results
c1ccc(-c2nnc(CN3CCc4ccccc4C3)o2)cc1 | Stable | 
c1ccc(-c2nnc(CN3CCCC3c3ccccc3)o2)cc1 (stereo unspecified) | Stable | 
Fc1ccc(-c2nnc(CN3CCOc4ccccc43)o2)cc1 | Stable | 
CN(Cc1nnc(-c2ccco2)o1)Cc1ccccc1Cl | Stable | 
c1csc(-c2nnc(Cc3cccc4c3OCCO4)o2)c1 | Stable | 
CC1CCc2ccccc2N1Cc1nc(-c2ccsc2)no1 (stereo unspecified) | Stable | MIC [2]: 2.2 µM (≈ 0.685 µg/mL)
c1csc(-c2nnc(CN3CCOc4ccccc43)o2)c1 | Stable | 
CN(Cc1ccc(C(F)(F)F)cc1)Cc1nnc(-c2cccs2)o1 | Stable | 
CN(Cc1nnc(-c2ccccc2)o1)Cc1c(F)cccc1Cl | Stable | 
FC(F)(F)c1ccc(-c2nnc(CN3CCCc4ccccc43)o2)cc1 | Stable | 
Fc1ccc(-c2nnc(CN3CCc4ccccc4C3)o2)cc1 | Stable | 
c1csc(-c2nnc(CN3CCc4ccccc4C3)o2)c1 | Stable | 
FC(F)(F)c1ccc(-c2nnc(CN3CCOc4ccccc43)o2)cc1 | Stable | 
c1ccc(-c2nnc(CN3CCc4ccccc43)o2)cc1 | Stable | 
CN(Cc1ccc(F)cc1)Cc1nnc(-c2ccccc2)o1 | Stable | 
CN(Cc1nnc(-c2cccs2)o1)Cc1c(F)cccc1Cl | Stable | 
CN(Cc1ccccc1)Cc1nnc(-c2ccco2)o1 | Stable | 
CN(Cc1nnc(-c2ccco2)o1)CC1CCCCC1 | Stable | 
c1ccc(Cc2nnc(-c3cccs3)o2)cc1 | Stable | 
CN(Cc1nnc(-c2ccco2)o1)Cc1c(F)cccc1Cl | Stable | MIC [2]: 0.8 µM (≈ 0.257 µg/mL)
c1csc(-c2nnc(CN3CCCc4ccccc43)o2)c1 | Stable | 

— ChEMBL document CHEMBL4219239, “Synthesis and biological evaluation of aryl-oxadiazoles as inhibitors of Mycobacterium tuberculosis” (Bioorg Med Chem Lett, 2018)
